Assay results reported in patent US9669034B2, “4-aryl-N-phenyl-1,3,5-triazin-2-amines containing a sulfoximine group” (BAYER INTELLECTUAL PROPERTY GMBH, priority 2011, dated 2017).

Tests used:
CDK9/CycT1 = CDK9/CycT1 (Homo sapiens (Human), UniProt P50750); experiment: CDK9/CycT1 kinase assay (TR-FRET); format: biochemical; conditions: Method 1
Excerpt: 1. CDK9/CycT1 Kinase Assay:
CDK9/CycT1—inhibitory activity of compounds of the present invention was quantified employing the CDK9/CycT1 TR-FRET assay as described in the following paragraphs:
Recombinant full-length His-tagged human CDK9 and CycT1, expressed in insect cells and purified by Ni-NTA affinity chromatography, were purchased from Invitrogen (Cat. No PV4131). As substrate for the kinase reaction biotinylated peptide biotin-Ttds-[…]

CDK2/CycE = CDK2/CycE (Homo sapiens (Human), UniProt P24941); experiment: CDK2/CycE kinase assay (TR-FRET); format: biochemical; conditions: Method 2
Excerpt: 2. CDK2/CycE Kinase Assay:
CDK2/CycE—inhibitory activity of compounds of the present invention was quantified employing the CDK2/CycE TR-FRET assay as described in the following paragraphs:
Recombinant fusion proteins of GST and human CDK2 and of GST and human CycE, expressed in insect cells (Sf9) and purified by Glutathion-Sepharose affinity chromatography, were purchased from ProQinase GmbH (Freiburg, Germany). As substrate for the kinase reaction biotinylated peptide biotin-Ttds-[…]

[1] = system: HeLa human cervical tumour cells; experiment: Proliferation assay (crystal violet), HeLa; format: cell-based; conditions: Homo sapiens, HeLa, Method 3, read-out: Inhibition of HeLa cell proliferation, IC50
Protocol: Cultivated tumour cells (NCI-H460, human non-small cell lung carcinoma cells, ATCC HTB-177; DU145, hormone-independent human prostate carcinoma cells, ATCC HTB-81; HeLa-MaTu, human cervical carcinoma cells, EPO-GmbH, Berlin; HeLa-MaTu-ADR, multidrug-resistant human cervical carcinoma cells, EPO-GmbH, Berlin; HeLa human cervical tumour cells, ATCC CCL-2; Caco-2 human colorectal carcinoma, ATCC HTB-37; B16F10 mouse melanoma cells, ATCC CRL-6475) were plated at a density of 5000 cells/well (DU145, HeLa-MaTu-ADR), 3000 cells/well (NCI-H460, HeLa-MaTu, HeLa), 1500 cells/well (Caco-2), or 1000 cells/well (B16 F10) in a 96-well multititer plate in 200 μL of their respective growth medium supplemented 10% fetal calf serum. After 24 hours, the cells of one plate (zero-point plate) were stained with crystal violet (see below), while the medium of the other plates was replaced by fresh culture medium (200 μL), to which the test substances were added in various concentrations (0 M, as well as in the range of […]; the final concentration of the solvent dimethylsulfoxide was 0.5%). The cells were incubated for 4 days in the presence of test substances. Cell proliferation was determined by staining the cells with crystal violet: the cells were fixed by adding 20 μL/measuring point of an 11% glutaric aldehyde solution for 15 minutes at room temperature. After three washing cycles of the fixed cells with water, the plates were dried at room temperature. The cells were stained by adding 100 μL/measuring point of a 0.1% crystal violet solution (pH 3.0). After three washing cycles of the stained cells with water, the plates were dried at room temperature. The dye was dissolved by adding 100 μL/measuring point of a 10% acetic acid solution. The absorbance was determined by photometry at a wavelength of 595 nm. The change of cell number, in percent, was calculated by normalization of the measured values to the absorbance values of the zero-point plate (=0%) and the absorbance of the untreated (0 M) cells (=100%). The IC50 values were determined by means of a 4 parameter fit.

[2] = unit cell empty (table: nM or μM)

Sequence of CDK9/CycT1 (P50750 whole entry): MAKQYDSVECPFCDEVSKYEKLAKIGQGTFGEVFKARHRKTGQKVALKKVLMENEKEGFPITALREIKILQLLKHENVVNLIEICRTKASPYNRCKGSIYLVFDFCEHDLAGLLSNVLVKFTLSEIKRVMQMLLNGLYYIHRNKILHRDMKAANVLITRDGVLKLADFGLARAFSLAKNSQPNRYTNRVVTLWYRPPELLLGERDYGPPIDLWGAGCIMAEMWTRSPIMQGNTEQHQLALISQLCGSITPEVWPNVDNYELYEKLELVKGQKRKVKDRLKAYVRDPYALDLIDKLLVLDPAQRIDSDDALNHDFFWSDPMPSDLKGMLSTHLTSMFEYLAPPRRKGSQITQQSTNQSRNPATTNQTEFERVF
Sequence of CDK9/CycT1 (O60563 whole entry partner): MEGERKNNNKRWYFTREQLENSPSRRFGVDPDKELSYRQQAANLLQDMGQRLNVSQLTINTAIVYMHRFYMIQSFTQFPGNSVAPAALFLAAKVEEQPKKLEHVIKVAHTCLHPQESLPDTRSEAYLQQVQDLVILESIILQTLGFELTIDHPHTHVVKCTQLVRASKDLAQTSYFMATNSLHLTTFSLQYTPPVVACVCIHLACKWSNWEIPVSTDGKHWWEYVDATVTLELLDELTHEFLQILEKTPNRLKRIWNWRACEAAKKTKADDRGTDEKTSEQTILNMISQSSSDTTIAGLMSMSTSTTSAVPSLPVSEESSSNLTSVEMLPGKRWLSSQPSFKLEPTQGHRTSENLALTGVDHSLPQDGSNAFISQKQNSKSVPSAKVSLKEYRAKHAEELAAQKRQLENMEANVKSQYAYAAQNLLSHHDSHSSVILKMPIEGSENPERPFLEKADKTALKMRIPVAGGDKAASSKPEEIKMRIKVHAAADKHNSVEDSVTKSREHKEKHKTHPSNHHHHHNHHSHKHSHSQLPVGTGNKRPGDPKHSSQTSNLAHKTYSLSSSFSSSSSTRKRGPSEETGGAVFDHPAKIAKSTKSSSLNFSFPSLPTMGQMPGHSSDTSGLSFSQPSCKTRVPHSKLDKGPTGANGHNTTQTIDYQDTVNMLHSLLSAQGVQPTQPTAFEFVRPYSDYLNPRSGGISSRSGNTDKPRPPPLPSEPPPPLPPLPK

Row | SMILES | IC50 (CDK9/CycT1) | IC50 (CDK2/CycE) | IC50 [1] | IC50 (CDK9/CycT1; [2]) | IC50 (CDK2/CycE; [2])
1 | CCOC(=O)N=S(C)(=O)Cc1cccc(Nc2ncnc(-c3ccccc3OC)n2)c1 (racemic) [Example 25, (rac)-Ethyl [(3-{[4-(2-methoxyphenyl)-1,3,5-triazin-2-yl]amino}benzyl)(methyl)oxido-λ^6-sulfanylidene]carbamate] | 28 nM | 6300 nM | 1100 nM |  | 
2 | CS(=N)(=O)Cc1cccc(Nc2ncnc(-c3cccc4c3OCCC4)n2)c1 (racemic) [Example 30, (rac)-4-(3,4-Dihydro-2H-chromen-8-yl)-N-{3-[(S-methylsulfonimidoyl)methyl]phenyl}-1,3,5-triazin-2-amine] |  | 940 nM | 1200 nM |  | 
3 | COc1cc(F)ccc1-c1ncnc(Nc2cccc(CS(C)(=O)=NS(C)(=O)=O)c2)n1 (racemic) [Example 44, (rac)-N-[(3-{[4-(4-Fluoro-2-methoxyphenyl)-1,3,5-triazin-2-yl]amino}benzyl)(methyl)oxido-λ^6-sulfanylidene]methanesulfonamide] | 20 nM | 1800 nM | 1000 nM |  | 
4 | COc1cc(F)ccc1-c1ncnc(Nc2ccc(Cl)c(CS(C)(=N)=O)c2)n1 (racemic) [Example 59, (rac)-N-{4-Chloro-3-[(S-methylsulfonimidoyl)methyl]phenyl}-4-(4-fluoro-2-methoxyphenyl)-1,3,5-triazin-2-amine] | 26 nM | 1400 nM | 860 nM |  | 
5 | CS(=N)(=O)Cc1cccc(Nc2ncnc(-c3ccccc3OCc3ccc(Cl)c(Cl)c3)n2)c1 (racemic) [Example 61, (rac)-4-{2-[(3,4-Dichlorobenzyl)oxy]phenyl}-N-{3-[(S-methylsulfonimidoyl)methyl]phenyl}-1,3,5-triazin-2-amine] | 15 nM | 1200 nM |  |  | 
6 | [2H]c1c([2H])c([2H])c(C([2H])([2H])Oc2cc(F)ccc2-c2ncnc(Nc3cccc(CS(C)(=N)=O)c3)n2)c([2H])c1[2H] (racemic) [Example 62, (rac)-4-(4-Fluoro-2-{[(^2H5)phenyl(^2H2)methyl]oxy}phenyl)-N-{3-[(S-methylsulfonimidoyl)methyl]phenyl}-1,3,5-triazin-2-amine] | 7 nM | 220 nM |  |  | 
7 | CS(=N)(=O)Cc1cccc(Nc2ncnc(-c3ccc(F)cc3OCCC(F)(F)F)n2)c1 (racemic) [Example 65, (rac)-4-[4-Fluoro-2-(3,3,3-trifluoropropoxy)phenyl]-N-{3-[(S-methylsulfonimidoyl)methyl]phenyl}-1,3,5-triazin-2-amine] | 79 nM | 6000 nM |  |  | 
8 | CS(=N)(=O)Cc1cccc(Nc2ncnc(-c3ccc(F)cc3OCc3cccnc3)n2)c1 (racemic) [Example 66, (rac)-4-[4-Fluoro-2-(pyridin-3-ylmethoxy)phenyl]-N-{3-[(S-methylsulfonimidoyl)methyl]phenyl}-1,3,5-triazin-2-amine] | 24 nM | 1600 nM | 1700 nM |  | 
9 | CS(=N)(=O)Cc1cccc(Nc2ncnc(-c3ccc(F)cc3OCc3ccccn3)n2)c1 (racemic) [Example 67, (rac)-4-[4-Fluoro-2-(pyridin-2-ylmethoxy)phenyl]-N-{3-[(S-methylsulfonimidoyl)methyl]phenyl}-1,3,5-triazin-2-amine] | 97 nM | 6900 nM |  |  | 
10 | CS(=N)(=O)Cc1cccc(Nc2ncnc(-c3ccc(F)cc3OCCC3CC3)n2)c1 (racemic) [Example 76, (rac)-4-[2-(2-Cyclopropylethoxy)-4-fluorophenyl]-N-{3-[(S-methylsulfonimidoyl)methyl]phenyl}-1,3,5-triazin-2-amine] | 30 nM | 3200 nM | 1100 nM |  | 
11 | CS(=N)(=O)Cc1cccc(Nc2ncnc(-c3ccc(F)cc3OCc3ccc(F)c(F)c3)n2)c1 (racemic) [Example 80, (rac)-4-{2-[(3,4-Difluorobenzyl)oxy]-4-fluorophenyl}-N-{3-[(S-methylsulfonimidoyl)methyl]phenyl}-1,3,5-triazin-2-amine] | 13 nM | 1000 nM | 730 nM |  | 
12 | CS(=N)(=O)Cc1cccc(Nc2ncnc(-c3ccc(F)cc3OCc3cncs3)n2)c1 (racemic) [Example 81, (rac)-4-[4-Fluoro-2-(1,3-thiazol-5-ylmethoxy)phenyl]-N-{3-[(S-methylsulfonimidoyl)methyl]phenyl}-1,3,5-triazin-2-amine] | 23 nM | 1500 nM | 860 nM |  | 
13 | COc1cc(F)ccc1-c1ncnc(Nc2cccc(CS(=O)(=NC#N)C3CC3)c2)n1 (racemic) [Example 113, (rac)-[Cyclopropyl(3-{[4-(4-fluoro-2-methoxyphenyl)-1,3,5-triazin-2-yl]amino}benzyl)oxido-λ^6-sulfanylidene]cyanamide] | 2 nM | 300 nM |  |  | 
14 | COc1cc(Cl)ccc1-c1ncnc(Nc2cccc(CS(C)(=N)=O)c2)n1 (single isomer, unassigned) [Example 13, 4-(4-Chloro-2-methoxyphenyl)-N-{3-[(S-methylsulfonimidoyl)methyl]phenyl}-1,3,5-triazin-2-amine] | 93 nM | 9500 nM |  |  | 
15 | COc1cc(Cl)ccc1-c1ncnc(Nc2cccc(CS(C)(=N)=O)c2)n1 (single isomer, unassigned) [Example 14, 4-(4-Chloro-2-methoxyphenyl)-N-{3-[(S-methylsulfonimidoyl)methyl]phenyl}-1,3,5-triazin-2-amine] | 160 nM | 13000 nM |  |  | 
16 | COc1ccccc1-c1ncnc(Nc2cccc(CS(C)(=N)=O)c2)n1 (single isomer, unassigned) [Example 27, 4-(2-Methoxyphenyl)-N-{3-[(S-methylsulfonimidoyl)methyl]phenyl}-1,3,5-triazin-2-amine] | 100 nM | 7600 nM |  |  | 
17 | COc1ccccc1-c1ncnc(Nc2cccc(CS(C)(=N)=O)c2)n1 (single isomer, unassigned) [Example 28, 4-(2-Methoxyphenyl)-N-{3-[(S-methylsulfonimidoyl)methyl]phenyl}-1,3,5-triazin-2-amine] | 89 nM | 5900 nM |  |  | 
18 | CS(=N)(=O)Cc1cccc(Nc2ncnc(-c3cccc4c3OCC4)n2)c1 (single isomer, unassigned) [Example 35, 4-(2,3-Dihydro-1-benzofuran-7-yl)-N-{3-[(S-methylsulfonimidoyl)methyl]phenyl}-1,3,5-triazin-2-amine] | 64 nM | 3100 nM |  |  | 
19 | CS(=N)(=O)Cc1cccc(Nc2ncnc(-c3cccc4c3OCC4)n2)c1 (single isomer, unassigned) [Example 36, 4-(2,3-Dihydro-1-benzofuran-7-yl)-N-{3-[(S-methylsulfonimidoyl)methyl]phenyl}-1,3,5-triazin-2-amine] | 50 nM | 2900 nM |  |  | 
20 | CCS(=N)(=O)Cc1cccc(Nc2ncnc(-c3ccc(F)cc3OC)n2)c1 (single isomer, unassigned) [Example 109, N-{3-[(S-ethylsulfonimidoyl)methyl]phenyl}-4-(4-fluoro-2-methoxyphenyl)-1,3,5-triazin-2-amine] |  |  |  | 24 nM | 780 nM
21 | CCS(=N)(=O)Cc1cccc(Nc2ncnc(-c3ccc(F)cc3OC)n2)c1 (single isomer, unassigned) [Example 110, N-{3-[(S-ethylsulfonimidoyl)methyl]phenyl}-4-(4-fluoro-2-methoxyphenyl)-1,3,5-triazin-2-amine] |  |  |  | 9 nM | 1100 nM
22 | CC(Oc1cc(F)ccc1-c1ncnc(Nc2cccc(CS(C)(=N)=O)c2)n1)c1ccc(F)cc1 (stereo not drawn) [Example 69, 4-{4-Fluoro-2-[1-(4-fluorophenyl)ethoxy]phenyl}-N-{3-[(S-methylsulfonimidoyl)methyl]phenyl}-1,3,5-triazin-2-amine] | 22 nM | 3500 nM |  |  | 
